The source of these data is publication PMC8213057, “Targeting ALK2: An Open Science Approach to Developing Therapeutics for the Treatment of Diffuse Intrinsic Pontine Glioma” (Journal of Medicinal Chemistry, 2020).

One assay deals with T1, RIPK4 (Homo sapiens, UniProt P57078).
T1 sequence (P57078 1-832): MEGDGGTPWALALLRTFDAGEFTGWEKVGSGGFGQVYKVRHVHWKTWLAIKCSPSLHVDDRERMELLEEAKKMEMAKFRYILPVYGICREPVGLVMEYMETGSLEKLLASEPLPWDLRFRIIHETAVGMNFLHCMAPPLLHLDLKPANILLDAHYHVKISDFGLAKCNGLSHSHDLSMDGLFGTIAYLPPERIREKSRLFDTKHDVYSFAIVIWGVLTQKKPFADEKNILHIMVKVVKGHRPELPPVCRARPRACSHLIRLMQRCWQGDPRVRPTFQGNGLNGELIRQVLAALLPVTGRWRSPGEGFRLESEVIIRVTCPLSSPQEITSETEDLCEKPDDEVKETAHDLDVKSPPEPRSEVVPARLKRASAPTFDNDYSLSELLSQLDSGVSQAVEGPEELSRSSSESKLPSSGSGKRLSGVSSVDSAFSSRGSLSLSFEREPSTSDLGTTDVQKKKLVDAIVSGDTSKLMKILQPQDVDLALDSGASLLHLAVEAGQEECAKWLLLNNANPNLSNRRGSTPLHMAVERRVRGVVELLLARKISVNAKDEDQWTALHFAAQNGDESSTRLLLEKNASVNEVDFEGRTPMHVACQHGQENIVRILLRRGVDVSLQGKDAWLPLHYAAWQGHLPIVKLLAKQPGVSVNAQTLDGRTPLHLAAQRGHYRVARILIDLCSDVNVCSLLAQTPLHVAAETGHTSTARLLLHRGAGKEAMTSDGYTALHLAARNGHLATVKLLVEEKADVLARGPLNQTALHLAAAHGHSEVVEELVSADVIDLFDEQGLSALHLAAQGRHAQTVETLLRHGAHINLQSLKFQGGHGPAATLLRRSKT
Conditions: 1 μM; Run 1, Run 2.

The target in another assay is T2, Aurora A (Homo sapiens, UniProt O14965).
T2 sequence (O14965 1-403): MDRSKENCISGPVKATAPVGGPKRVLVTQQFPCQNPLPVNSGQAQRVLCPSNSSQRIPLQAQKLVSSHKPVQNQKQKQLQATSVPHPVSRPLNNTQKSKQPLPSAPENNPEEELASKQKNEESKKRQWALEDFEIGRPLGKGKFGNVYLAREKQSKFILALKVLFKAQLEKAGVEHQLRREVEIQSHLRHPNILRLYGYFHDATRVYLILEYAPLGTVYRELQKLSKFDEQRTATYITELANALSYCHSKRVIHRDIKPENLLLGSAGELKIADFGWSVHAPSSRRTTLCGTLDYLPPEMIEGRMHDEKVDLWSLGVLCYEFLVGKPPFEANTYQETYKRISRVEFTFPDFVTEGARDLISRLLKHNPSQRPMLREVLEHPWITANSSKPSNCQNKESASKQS
Briefly: biochemical. Particulars: read-out: % enzyme activity, 1 μM; Run 1, Run 2.

Another assay concerns the target T3, DRAK1/STK17A (Homo sapiens, UniProt Q9UEE5).
T3 sequence (Q9UEE5 1-414): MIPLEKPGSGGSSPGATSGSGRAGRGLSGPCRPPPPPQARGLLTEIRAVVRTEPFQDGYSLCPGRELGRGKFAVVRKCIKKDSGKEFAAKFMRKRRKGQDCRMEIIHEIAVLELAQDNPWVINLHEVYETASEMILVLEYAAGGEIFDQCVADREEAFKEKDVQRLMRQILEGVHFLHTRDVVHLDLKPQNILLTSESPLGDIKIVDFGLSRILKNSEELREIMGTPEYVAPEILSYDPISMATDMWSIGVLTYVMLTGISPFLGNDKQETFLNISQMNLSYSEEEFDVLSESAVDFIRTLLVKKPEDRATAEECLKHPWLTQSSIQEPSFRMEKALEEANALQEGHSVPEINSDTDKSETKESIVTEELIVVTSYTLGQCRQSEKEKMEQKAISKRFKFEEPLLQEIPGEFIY
Particulars: 1 μM; Run 1, Run 2.

Another assay addresses MRCKa/CDC42BPA (Homo sapiens, UniProt Q5VT25). Particulars: 1 μM; Run 1, Run 2.
A further assay addresses AKT2 (Homo sapiens, UniProt P31751). Briefly: biochemical. Conditions: read-out: % enzyme activity, 1 μM; Run 1, Run 2.
For another assay, the target named is STK33 (Homo sapiens, UniProt Q9BYT3). Briefly: biochemical. Particulars: read-out: % enzyme activity, 1 μM; Run 1, Run 2.
The target of a further assay is PYK2 (Homo sapiens, UniProt Q14289). Briefly: biochemical. Particulars: read-out: % enzyme activity, 1 μM; Run 1, Run 2.
For a further assay, the target named is PASK (Homo sapiens, UniProt Q96RG2). Briefly: biochemical. Conditions: read-out: % enzyme activity, 1 μM; Run 1, Run 2.
For another assay, the target named is T4, SGK1 (Homo sapiens, UniProt O00141).
T4 sequence (O00141 1-431): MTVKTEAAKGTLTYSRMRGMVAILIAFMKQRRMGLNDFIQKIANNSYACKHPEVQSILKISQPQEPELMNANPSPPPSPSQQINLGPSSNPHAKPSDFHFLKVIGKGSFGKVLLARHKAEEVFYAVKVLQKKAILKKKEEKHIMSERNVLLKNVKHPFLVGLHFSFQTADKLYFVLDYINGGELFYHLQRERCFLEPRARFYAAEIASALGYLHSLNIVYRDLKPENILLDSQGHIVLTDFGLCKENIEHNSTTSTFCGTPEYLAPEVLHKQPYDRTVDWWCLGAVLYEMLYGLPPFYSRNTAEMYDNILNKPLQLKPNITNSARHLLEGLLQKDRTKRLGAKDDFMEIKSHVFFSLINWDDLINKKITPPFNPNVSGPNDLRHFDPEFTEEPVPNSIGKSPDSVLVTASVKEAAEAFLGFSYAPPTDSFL
Briefly: biochemical. Conditions: read-out: % enzyme activity, 1 μM; Run 1, Run 2.

Structures are written as SMILES. Several values for one entry are separate records, joined by “and”; a condition that tells them apart may be missing. Equal values may be shown once.

Sequence of MRCKa/CDC42BPA (Q5VT25 whole entry): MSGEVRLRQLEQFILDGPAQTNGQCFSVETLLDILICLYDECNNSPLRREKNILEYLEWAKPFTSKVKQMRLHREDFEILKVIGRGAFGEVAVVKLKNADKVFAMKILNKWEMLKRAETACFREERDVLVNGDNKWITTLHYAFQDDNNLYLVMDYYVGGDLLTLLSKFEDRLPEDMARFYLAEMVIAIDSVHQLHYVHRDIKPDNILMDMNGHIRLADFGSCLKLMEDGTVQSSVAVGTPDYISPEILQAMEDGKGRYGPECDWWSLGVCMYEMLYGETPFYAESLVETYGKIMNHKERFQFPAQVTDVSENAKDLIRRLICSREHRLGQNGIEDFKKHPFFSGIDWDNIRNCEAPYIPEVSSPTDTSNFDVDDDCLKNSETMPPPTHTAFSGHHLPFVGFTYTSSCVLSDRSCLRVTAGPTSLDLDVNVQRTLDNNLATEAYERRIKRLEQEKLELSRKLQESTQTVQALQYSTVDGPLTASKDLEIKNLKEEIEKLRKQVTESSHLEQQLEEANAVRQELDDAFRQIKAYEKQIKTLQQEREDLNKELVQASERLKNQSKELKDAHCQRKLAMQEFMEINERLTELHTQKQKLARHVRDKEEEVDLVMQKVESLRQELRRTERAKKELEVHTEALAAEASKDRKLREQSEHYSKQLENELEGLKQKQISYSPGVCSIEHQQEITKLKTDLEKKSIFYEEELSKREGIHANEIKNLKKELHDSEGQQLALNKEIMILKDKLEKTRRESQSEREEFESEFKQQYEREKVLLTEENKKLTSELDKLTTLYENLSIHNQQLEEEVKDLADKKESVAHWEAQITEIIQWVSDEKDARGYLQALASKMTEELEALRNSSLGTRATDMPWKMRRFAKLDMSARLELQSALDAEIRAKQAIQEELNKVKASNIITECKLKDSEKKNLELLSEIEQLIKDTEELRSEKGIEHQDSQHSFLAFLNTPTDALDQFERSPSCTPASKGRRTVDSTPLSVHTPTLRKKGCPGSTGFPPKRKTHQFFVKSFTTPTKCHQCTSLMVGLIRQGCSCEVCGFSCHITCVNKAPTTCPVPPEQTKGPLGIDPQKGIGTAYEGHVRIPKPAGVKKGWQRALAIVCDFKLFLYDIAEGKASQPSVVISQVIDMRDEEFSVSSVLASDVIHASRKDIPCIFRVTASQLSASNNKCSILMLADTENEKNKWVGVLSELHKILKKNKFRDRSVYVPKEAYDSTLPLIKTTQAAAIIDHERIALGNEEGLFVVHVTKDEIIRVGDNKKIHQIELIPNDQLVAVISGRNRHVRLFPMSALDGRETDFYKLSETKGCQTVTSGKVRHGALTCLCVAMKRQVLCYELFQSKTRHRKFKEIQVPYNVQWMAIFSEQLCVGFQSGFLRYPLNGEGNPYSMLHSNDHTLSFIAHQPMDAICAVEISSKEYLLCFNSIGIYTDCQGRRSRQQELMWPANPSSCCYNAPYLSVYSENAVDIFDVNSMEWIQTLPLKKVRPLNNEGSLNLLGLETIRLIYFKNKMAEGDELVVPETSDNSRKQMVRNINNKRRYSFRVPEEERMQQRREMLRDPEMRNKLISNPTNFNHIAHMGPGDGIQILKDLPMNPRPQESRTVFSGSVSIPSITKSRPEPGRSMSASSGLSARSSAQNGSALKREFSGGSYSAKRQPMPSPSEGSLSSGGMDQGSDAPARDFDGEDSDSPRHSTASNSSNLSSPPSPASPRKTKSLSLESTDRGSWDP
Sequence of AKT2 (P31751 whole entry): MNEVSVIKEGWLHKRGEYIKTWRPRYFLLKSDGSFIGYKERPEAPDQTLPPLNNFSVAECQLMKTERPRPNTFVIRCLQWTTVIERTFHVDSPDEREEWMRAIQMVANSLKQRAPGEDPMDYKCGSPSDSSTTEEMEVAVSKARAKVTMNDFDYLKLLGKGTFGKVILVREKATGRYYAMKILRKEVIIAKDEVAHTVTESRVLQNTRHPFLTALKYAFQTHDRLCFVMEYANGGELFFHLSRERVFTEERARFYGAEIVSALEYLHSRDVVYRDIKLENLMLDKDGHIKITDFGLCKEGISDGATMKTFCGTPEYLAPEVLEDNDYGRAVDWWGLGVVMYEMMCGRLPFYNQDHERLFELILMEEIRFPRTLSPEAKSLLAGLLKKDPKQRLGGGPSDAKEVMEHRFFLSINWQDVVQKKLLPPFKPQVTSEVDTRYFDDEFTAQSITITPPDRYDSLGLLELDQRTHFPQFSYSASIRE
Sequence of PASK (Q96RG2 whole entry): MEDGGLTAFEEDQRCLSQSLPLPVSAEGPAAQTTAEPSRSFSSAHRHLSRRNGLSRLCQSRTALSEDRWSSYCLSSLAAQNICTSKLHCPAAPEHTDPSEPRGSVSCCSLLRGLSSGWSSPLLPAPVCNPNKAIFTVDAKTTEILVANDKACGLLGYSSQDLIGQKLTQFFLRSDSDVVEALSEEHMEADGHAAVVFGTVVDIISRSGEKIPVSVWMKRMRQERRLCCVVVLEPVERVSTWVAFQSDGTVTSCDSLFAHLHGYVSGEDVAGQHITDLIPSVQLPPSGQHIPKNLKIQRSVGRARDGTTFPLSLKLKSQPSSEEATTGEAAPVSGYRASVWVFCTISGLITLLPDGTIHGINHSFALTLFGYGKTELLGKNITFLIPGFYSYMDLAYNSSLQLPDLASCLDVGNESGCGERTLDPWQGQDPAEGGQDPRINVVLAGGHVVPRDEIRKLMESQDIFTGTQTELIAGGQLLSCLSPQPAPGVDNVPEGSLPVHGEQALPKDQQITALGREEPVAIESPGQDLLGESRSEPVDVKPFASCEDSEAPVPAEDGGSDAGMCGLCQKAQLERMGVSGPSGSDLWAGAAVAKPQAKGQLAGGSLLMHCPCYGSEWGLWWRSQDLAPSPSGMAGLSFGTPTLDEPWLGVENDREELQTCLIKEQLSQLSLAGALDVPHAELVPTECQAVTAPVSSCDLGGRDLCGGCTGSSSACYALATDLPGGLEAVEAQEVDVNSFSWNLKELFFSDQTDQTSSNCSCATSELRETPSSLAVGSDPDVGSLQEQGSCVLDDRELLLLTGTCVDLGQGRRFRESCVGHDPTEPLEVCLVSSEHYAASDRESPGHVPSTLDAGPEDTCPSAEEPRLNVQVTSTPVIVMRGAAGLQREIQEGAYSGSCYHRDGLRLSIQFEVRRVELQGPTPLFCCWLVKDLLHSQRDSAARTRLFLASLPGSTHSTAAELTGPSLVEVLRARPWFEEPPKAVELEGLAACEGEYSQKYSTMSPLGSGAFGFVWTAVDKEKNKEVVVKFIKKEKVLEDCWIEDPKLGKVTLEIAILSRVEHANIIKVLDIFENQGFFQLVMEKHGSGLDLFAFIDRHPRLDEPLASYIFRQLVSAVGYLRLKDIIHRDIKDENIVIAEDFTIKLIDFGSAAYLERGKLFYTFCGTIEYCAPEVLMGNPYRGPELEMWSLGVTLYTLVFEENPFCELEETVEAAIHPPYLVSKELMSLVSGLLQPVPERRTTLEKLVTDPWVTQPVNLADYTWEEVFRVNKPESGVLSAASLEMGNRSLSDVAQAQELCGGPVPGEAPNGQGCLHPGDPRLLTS
Sequence of STK33 (Q9BYT3 whole entry): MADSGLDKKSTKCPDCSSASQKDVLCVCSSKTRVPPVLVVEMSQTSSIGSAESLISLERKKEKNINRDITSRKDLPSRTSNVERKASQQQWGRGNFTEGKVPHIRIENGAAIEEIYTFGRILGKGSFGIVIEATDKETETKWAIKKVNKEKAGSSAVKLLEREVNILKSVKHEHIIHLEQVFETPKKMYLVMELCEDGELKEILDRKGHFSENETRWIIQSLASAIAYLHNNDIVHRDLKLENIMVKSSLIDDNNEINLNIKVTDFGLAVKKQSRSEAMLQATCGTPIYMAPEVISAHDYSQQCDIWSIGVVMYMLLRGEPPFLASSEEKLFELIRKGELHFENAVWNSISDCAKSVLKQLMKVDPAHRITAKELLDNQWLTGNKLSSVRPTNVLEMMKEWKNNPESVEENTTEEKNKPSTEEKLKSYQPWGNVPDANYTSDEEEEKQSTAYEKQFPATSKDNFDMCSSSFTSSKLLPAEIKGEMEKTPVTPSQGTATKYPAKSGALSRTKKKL
Sequence of PYK2 (Q14289 whole entry): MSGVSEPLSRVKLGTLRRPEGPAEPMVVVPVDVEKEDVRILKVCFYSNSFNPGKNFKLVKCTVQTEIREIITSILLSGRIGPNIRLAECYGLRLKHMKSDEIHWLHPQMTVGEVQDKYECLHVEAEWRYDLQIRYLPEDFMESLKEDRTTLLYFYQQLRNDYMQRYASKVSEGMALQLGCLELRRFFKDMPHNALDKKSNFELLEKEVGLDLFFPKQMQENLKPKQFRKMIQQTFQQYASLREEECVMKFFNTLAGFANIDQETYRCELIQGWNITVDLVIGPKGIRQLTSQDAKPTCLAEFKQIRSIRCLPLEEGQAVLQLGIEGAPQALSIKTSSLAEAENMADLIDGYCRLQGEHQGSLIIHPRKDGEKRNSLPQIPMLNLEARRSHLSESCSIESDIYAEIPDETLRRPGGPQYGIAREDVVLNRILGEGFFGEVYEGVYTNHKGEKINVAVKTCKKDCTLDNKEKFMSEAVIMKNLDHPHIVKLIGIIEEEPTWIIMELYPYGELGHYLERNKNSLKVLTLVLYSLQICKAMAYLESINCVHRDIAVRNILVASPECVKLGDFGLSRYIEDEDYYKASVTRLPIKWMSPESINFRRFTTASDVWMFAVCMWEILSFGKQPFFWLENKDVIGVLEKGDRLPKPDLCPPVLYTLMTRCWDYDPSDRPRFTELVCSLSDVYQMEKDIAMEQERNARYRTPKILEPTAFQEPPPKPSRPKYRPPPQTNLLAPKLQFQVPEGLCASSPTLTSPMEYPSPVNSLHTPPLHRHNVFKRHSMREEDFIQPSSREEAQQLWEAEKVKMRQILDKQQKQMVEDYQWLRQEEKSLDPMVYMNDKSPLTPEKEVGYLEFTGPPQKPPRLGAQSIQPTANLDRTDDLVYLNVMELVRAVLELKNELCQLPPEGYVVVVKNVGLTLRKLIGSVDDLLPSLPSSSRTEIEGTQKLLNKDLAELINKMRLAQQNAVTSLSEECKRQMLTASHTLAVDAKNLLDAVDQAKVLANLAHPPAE

On to `COc1cc(-c2cncc(-c3ccc(N4C[C@@H](C)N(C)[C@@H](C)C4)cc3)c2C)cc(F)c1C(N)=O` [Compound 26c, 2-Fluoro-6-methoxy-4-(4-methyl-5-(4-((3R,5S)-3,4,5-trimethylpiperazin-1-yl)phenyl)pyridin-3-yl)benzamide], for which the “% enzyme activity” value on RIPK4 is listed as 82.04%; on DRAK1/STK17A it was 95.69%; at MRCKa/CDC42BPA it was 104.72%. The remaining activity at 1 µM at Aurora A was 102%; on AKT2 it was 93%; on STK33, 97.4%; at PYK2, 88.6%; on PASK, 99.2%; on SGK1, 98.8%. The % enzyme activity at 1 μM with ALK1/ACVRL1 is 4.67% and 4.38%; with ALK3/BMPR1A, 50.5% and 50%.

`COc1cc(-c2cncc(-c3ccc(N4CCN(C)CC4)cc3)c2C)cc(F)c1C(N)=O` [Compound 26a, 2-Fluoro-6-methoxy-4-(4-methyl-5-(4-(4-methylpiperazin-1-yl)phenyl)pyridin-3-yl)benzamide]: the “% enzyme activity” value came out at 70.28% at RIPK4, 95.60% at DRAK1/STK17A and 102.07% at MRCKa/CDC42BPA. The remaining activity at 1 µM worked out at 101% on Aurora A; 91.9% at AKT2; 91% on STK33; 85.9% at PYK2; 94% at PASK; 94.9% at SGK1. Moreover, the % enzyme activity at 1 μM was 2.65% in the assay on ALK1/ACVRL1; 40.2% and 38.4% in the assay on ALK3/BMPR1A.
